Test results from a compilation of properties of binary mixtures (doi:10.1021/je0498457).

Assay: excess molar enthalpy (molar enthalpy of mixing); xn = mol fraction of the nth substance listed
Settings: 100 kPa

C1CCOCC1 + CCCCO
excess molar enthalpy [kcal/mol]
Settings | 283.15 K | 298.15 K | 313.15 K
x1 = 0.04 | 0.0282 | 0.0299 | 0.0284
x1 = 0.09 | 0.0574 | 0.0614 | 0.0617
x1 = 0.188 | 0.108 | – | 0.124
x1 = 0.288 | 0.15 | 0.165 | 0.176
x1 = 0.39 | 0.182 | 0.201 | 0.215
x1 = 0.49 | 0.199 | – | 0.234
x1 = 0.593 | 0.204 | 0.223 | –
x1 = 0.694 | 0.192 | – | 0.218
x1 = 0.796 | 0.159 | 0.167 | 0.171
x1 = 0.901 | 0.0963 | 0.0985 | 0.0975
x1 = 0.952 | 0.0528 | 0.0531 | 0.0516
